For 14 compounds, IC50, CC50 and EC50 results are on record in ChEMBL document CHEMBL5331055, “Current medicinal chemistry strategies in the discovery of novel HIV-1 ribonuclease H inhibitors” (Eur J Med Chem, 2022).

Data set [1] in a line: Inhibition of HIV-1 reverse transcriptase associated RNA dependent DNA polymerase activity incubated for 30 mins by multilabel counter plate reader method. Also noted: species or system Human immunodeficiency virus 1.
Data set [2] has as its target T1, Human immunodeficiency virus type 1 integrase (Human immunodeficiency virus 1, UniProt Q7ZJM1). Description: Inhibition of HIV-1 integrase strand transfer activity.
The nature of data set [3]: Inhibition of wild type HIV-1 RNA dependent DNA polymerase activity incubated for 30 mins by multilabel counter plate reader method. Also noted: species or system Human immunodeficiency virus 1.
For data set [4], the target named is T2, Human immunodeficiency virus type 1 reverse transcriptase (Human immunodeficiency virus 1, UniProt Q72547). The experiment in a line: Inhibition of recombinant HIV-1 reverse transcriptase […] RNase H expressed in Escherichia coli M15 using 5-GTTTTCTTTTCCCCCCTGAC-3 Fluorescein/5CAAAAGAAAAGGGGGGACUG-3-Dabcyl RNA/DNA template-primer as substrate incubated for 1 hr by multilabel counter plate reader method.

In data set [5] the target is T2, Human immunodeficiency virus type 1 reverse transcriptase. The experiment in a line: Inhibition of wild type HIV-1 reverse transcriptase associated DNA polymerase independent RNase H activity using 5-GTTTTCTTTTCCCCCCTGAC-3 Fluorescein/5CAAAAGAAAAGGGGGGACUG-3-Dabcyl RNA/DNA template-primer as substrate by multilabel counter plate reader method.
Data set [6] shares this target. Description: Inhibition of HIV-1 RNase H.
A short description of data set [7]: Cytotoxicity against human MT4 cells assessed as reduction in cell viability by MTT assay. In kind it is toxicity, cell-based.
Data set [8] has as its target T2, Human immunodeficiency virus type 1 reverse transcriptase. The experiment in a line: Inhibition of N-terminal 6-his-tagged HIV-1 reverse transcriptase RNase H (427 to 560 residues) transformed in Escherichia coli […] (DE3) at pH 7.4 incubated for 4 hrs.
The target is the same in data set [9]. Description: Inhibition of N-terminal 6-his-tagged HIV-1 reverse transcriptase RNase H (427 to 560 residues) transformed in Escherichia coli […] (DE3) at pH 8.0 incubated for 4 hrs.
Data set [10] is described as follows: in vitro. The following applies: human, TZM-bl cells.
Description: Cytotoxicity against human TZM-bl cells assessed as reduction in cell viability at 20 uM incubated for 3 days by XTT assay
Data set [11] has as its target T2, Human immunodeficiency virus type 1 reverse transcriptase. The experiment in a line: Non-competitive inhibition of HIV reverse transcriptase polymerase activity.
The target is the same in data set [12]. Description: Inhibition of HIV-1 reverse transcriptase associated RNase H activity.
Data set [13] deals with Human immunodeficiency virus 1. Description: Antiviral activity against wild type HIV-1 IIIB infected in human MT2 cells assessed as protection against virus-induced cytopathicity incubated for 5 days by MTT assay. The following applies: Human immunodeficiency virus 1, IIIB, MT2, 120 h. The class given is functional, organism-based. (Protection from cytopathic effect is a common read-out in antiviral testing.)

Data set [14] is described as follows: Cytotoxicity against human TZM-bl cells assessed as reduction in cell viability incubated for 5 days by MTT assay. The class given is toxicity, cell-based. The following applies: time 5 day.
Data set [15] concerns Human immunodeficiency virus 1. The experiment in a line: Antiviral activity against HIV-1 IIIB infected in human TZM-bl cells assessed as reduction in virus-induced cytopathic effect incubated for 5 days by MTT assay. The class given is functional, organism-based. Particulars: Human immunodeficiency virus 1, IIIB, 120 h.
Data set [16] has as its target T2, Human immunodeficiency virus type 1 reverse transcriptase. Description: Inhibition of HIV-1 reverse transcriptase RNase H activity expressed in Escherichia coli M15 using 5-GTTTTCTTTTCCCCCCTGAC-3 Fluorescein/5CAAAAGAAAAGGGGGGACUG-3-Dabcyl RNA/DNA template-primer as substrate incubated for 1 hr by multilabel counter plate reader method.
Data set [17] relates to Human immunodeficiency virus 1. Description: Antiviral activity against HIV-1 infected in human MT4 cells assessed as inhibition of virus-induced cytopathic effect measured after 5 days by spectrophotometric MTT assay. In kind it is functional, organism-based. The following applies: Human immunodeficiency virus 1, MT4, 120 h.
The target in data set [18] is T1, Human immunodeficiency virus type 1 integrase. Description: Inhibition of recombinant HIV-1 His-tagged LEDGF-dependent integrase preincubated for 1 hr followed by compound addition and measured after 90 mins by HTRF method.
The subject of data set [19] is MT4. The experiment in a line: Cytotoxicity against human MT4 cells. In kind it is functional.
The target in data set [20] is T2, Human immunodeficiency virus type 1 reverse transcriptase. Description: Inhibition of HIV-1 reverse transcriptase associated RNase H using 5-GTTTTCTTTTCCCCCCTGAC-3 Fluorescein/5CAAAAGAAAAGGGGGGACUG-3-Dabcyl as substrate incubated for 1 hr.
Data set [21] deals with Human immunodeficiency virus 1. Description: Antiviral activity against wild type HIV-1 infected in human MT4 cells assessed as inhibition of virus-induced cytopathic effect measured by MTT assay. In kind it is functional, organism-based. The following applies: Human immunodeficiency virus 1, MT4.

A word on the pIC50: it is −log10 of the IC50, conventionally taken in molar units. What is called CC50 is the concentration at which the toxic effect on the cells reaches its halfway point. One may read the pEC50 as −log10 of the EC50, conventionally taken in molar units.

Each structure is given as a SMILES string. pEC50, pIC50: −log10 of the molar value.

T1 sequence (Q7ZJM1 whole entry): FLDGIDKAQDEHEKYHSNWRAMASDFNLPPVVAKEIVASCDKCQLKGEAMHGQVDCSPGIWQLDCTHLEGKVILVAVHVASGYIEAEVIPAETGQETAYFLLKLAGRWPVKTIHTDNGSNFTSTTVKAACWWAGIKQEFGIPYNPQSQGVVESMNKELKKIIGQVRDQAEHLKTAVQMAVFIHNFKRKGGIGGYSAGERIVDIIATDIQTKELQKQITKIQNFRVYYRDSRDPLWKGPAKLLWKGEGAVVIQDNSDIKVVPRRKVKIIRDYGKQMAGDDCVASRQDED

In the case of `COC(=O)c1cc(NC(=O)c2cc3cc([N+](=O)[O-])c(O)c(O)c3oc2=O)ccc1O`, the negative logarithm of the IC50 (pIC50) in [1] is 5.22.
Take `Cc1c(O)c([N+](=O)[O-])cc2cc(C(=O)Nc3ccc(O)c(C(=O)O)c3)c(=O)oc12`: the pIC50 was 5.30 in data set [2] and 5.17 in data set [1].
As to `N#Cc1ccc(-c2c[nH]/c(=N\N=C3/C(=O)Nc4ccccc43)s2)cc1`, the pIC50 was 5.01 in data set [3] and 5.89 in data set [4].
For the compound `Cn1cc(-c2ccc(-c3ccccc3)cc2)s/c1=N/N=C1\C(=O)Nc2ccc(Cl)cc21`, the pIC50 in data set [5] is 5.02; in data set [6] it was 5.00.
In data set [6], `COC(=O)c1c(C)cc(O)c(=O)c(O)c1Br` had a pIC50 of 6.89.
Consider `Nc1ccc(S(=O)(=O)N2CCN(C(=O)c3cc(O)c(O)c(O)c3)CC2)cc1`, for which the CC50 in [7] was greater than 19.9 µM.
Consider `O=C(O)Cc1cc(=O)oc2c(O)c(O)ccc12`, for which the pIC50 in data set [8] was 5.32; in data set [9] it was 5.96.
Regarding `CC1=C[C@H](c2c(O)ccc([C@@H]3CC(=O)c4c(O)cc(O)cc4O3)c2O)[C@@H](C(=O)c2ccc(O)cc2O)[C@H](c2ccc(O)cc2O)C1` [KUWANON L], the CC50 at 72 h in data set [10] is greater than 20 µM.
As for `C=C(C)[C@@H]1CCc2c(c(C)cc(O)c(=O)c2O)C1`, the negative logarithm of the IC50 (pIC50) in data set [6] is 6.22.
Take `O=C1Cc2ccc(-c3ccco3)cc2C(=O)N1O`: the pIC50 was 5.59 in data set [11] and 6.19 in [12].
Regarding `Nc1nn(C(=O)c2ccccc2)c(N)c1C(=S)Nc1ccc(Cl)cc1`, the pIC50 in [3] was 4.77; in [13], 4.60; in [5], 5.15.
For `COc1cc(OC)cc(OC(=O)c2ccc(C(F)(F)F)nc2Nc2cc(Cl)ccc2C)c1`, the CC50 at 120 h in data set [14] is greater than 50 µM. In addition, in [15], the pEC50 is 5.30. For the same compound, the pIC50 in data set [16] was 4.85; in [1], 4.79.
Regarding `O=C(N/N=C/c1ccc(O)cc1O)c1cc(O)c(O)c(O)c1`, the pEC50 in data set [17] is 4.77. Besides, the pIC50 was 4.80 in data set [18] and 5.77 in [20]. Moreover, the midpoint of cytotoxicity in data set [19], the CC50, lay at 61 µM.
As for `CCOC(=O)C(=O)CC(=O)/C=C/c1cccn1Cc1ccc(F)cc1`, in [21], the pEC50 is 4.85.
